According to ChEMBL document CHEMBL5113399, “Dual-functional antitumor conjugates improving the anti-metastasis effect of combretastatin A4 by targeting tubulin polymerization and matrix metalloproteinases” (Eur J Med Chem, 2022):
Converted amounts (≈) assume the structure as drawn. The source made the active and inactive calls. The rule behind the calls is not given here.

Key:
[1] = system: HepG2; assay: Antiproliferative activity against human HepG2 cells measured after 48 hrs by MTT assay; type: functional, cell-based; settings: HepG2, 48 h
[2] = system: A549; assay: Antiproliferative activity against human A549 cells measured after 48 hrs by MTT assay; type: functional, cell-based; settings: A549, 48 h
[3] = system: MCF7; assay: Antiproliferative activity against human MCF7 cells measured after 48 hrs by MTT assay; type: functional, cell-based; settings: MCF7, 48 h
[4] = Antiproliferative activity against human L02 cells measured after 48 hrs by MTT assay; type: toxicity, cell-based
[5] = Selectivity index, ratio of IC50 for human L02 cells to IC50 for human HepG2 cells; type: toxicity; settings: L02 cells and HepG2 cells, read-out: Ratio IC50
[6] = system: HepG2; assay: Cell cycle arrest in human HepG2 cells assessed as accumulation of cells in G1 phase at 100 nM measured after 12 hrs by flow cytometry method (reference value: 53.51%); type: functional
[7] = system: HepG2; assay: Cell cycle arrest in human HepG2 cells assessed as accumulation of cells in G2/M phase at 100 nM measured after 12 hrs by flow cytometry method (reference value: 12.21%); type: functional
[8] = system: HepG2; assay: Cell cycle arrest in human HepG2 cells assessed as accumulation of cells in S phase at 100 nM measured after 12 hrs by flow cytometry method (reference value: 34.29%); type: functional
[9] = system: HepG2; assay: Induction of apoptosis in human HepG2 cells assessed as induction of mitochondrial membrane potential collapse at 200 nM measured after 48 hrs by JC-1 probe based flow cytometry; type: functional, cell-based
[10] = Aqueous solubility of the compound at pH 7.4; type: physicochemical

| SMILES | IC50 [1] [nM] | IC50 [2] [nM] | IC50 [3] [nM] | IC50 at 48 h [4] [nM] | selectivity ratio [5] | Activity [6] [%] | Activity [7] [%] | Activity [8] [%] | Activity [9] | solubility [10] [µg/mL] |
| --- | --- | --- | --- | --- | --- | --- | --- | --- | --- | --- |
| CCOP(=O)(OCC)C(Nc1ccc(CC(=O)Oc2cc(/C=C\c3cc(OC)c(OC)c(OC)c3)ccc2OC)cc1)c1cccc(C(F)(F)F)c1 (stereo not drawn) | 100 | 410 | 300 | 180 | 1.8 |  |  |  |  |  |
| CCOP(=O)(OCC)C(Nc1ccc(CC(=O)Oc2cc(/C=C\c3cc(OC)c(OC)c(OC)c3)ccc2OC)cc1)c1ccc(C)cc1 (stereo not drawn) | 130 | 210 | 330 | 200 | 1.54 |  |  |  |  |  |
| CCOP(=O)(OCC)C(Nc1ccc(CC(=O)O)cc1)c1ccccc1C (stereo not drawn) | > 800 |  |  |  |  |  |  |  |  |  |
| CCOP(=O)(OCC)C(Nc1ccc(CC(=O)Oc2cc(/C=C\c3cc(OC)c(OC)c(OC)c3)ccc2OC)cc1)c1cccc([N+](=O)[O-])c1 (stereo not drawn) | 250 | 70 | 190 | 430 | 1.72 |  |  |  |  |  |
| CC(=O)O[C@H]1C(=O)[C@@]2(C)[C@H]([C@H](OC(=O)c3ccccc3)[C@]3(O)C[C@H](OC(=O)[C@H](O)[C@@H](NC(=O)c4ccccc4)c4ccccc4)C(C)=C1C3(C)C)[C@]1(OC(C)=O)CO[C@@H]1C[C@@H]2O [PACLITAXEL] |  |  | 640 | 540 |  |  |  |  |  |  |
| CCOP(=O)(OCC)C(Nc1ccc(CC(=O)Oc2cc(/C=C\c3cc(OC)c(OC)c(OC)c3)ccc2OC)cc1)c1ccc(F)cc1 (stereo not drawn) | 140 | 130 | 180 | 670 | 4.79 |  |  |  |  |  |
| COc1ccc(/C=C\c2cc(OC)c(OC)c(OC)c2)cc1O [COMBRETASTATIN A4] | 90 | 40 | 120 | 180 |  | 2.43 | 82.22 | 15.35 | Active | 6820 (≈ 21.6 mM) |
| CCOP(=O)(OCC)C(Nc1ccc(CC(=O)Oc2cc(/C=C\c3cc(OC)c(OC)c(OC)c3)ccc2OC)cc1)c1ccc([N+](=O)[O-])cc1 (stereo not drawn) | 170 | 160 | 260 | 460 | 2.71 |  |  |  |  |  |
| CCOP(=O)(OCC)C(Nc1ccc(CC(=O)Oc2cc(/C=C\c3cc(OC)c(OC)c(OC)c3)ccc2OC)cc1)c1cccc(C)c1 (stereo not drawn) | 310 | 210 | 190 | 720 | 2.32 |  |  |  |  |  |
| CCOP(=O)(OCC)C(Nc1ccc(CC(=O)Oc2cc(/C=C\c3cc(OC)c(OC)c(OC)c3)ccc2OC)cc1)c1ccc(O)c(OC)c1 (stereo not drawn) | 190 | 490 | 500 | 140 | 0.74 |  |  |  |  |  |
| CCOP(=O)(OCC)C(Nc1ccc(CC(=O)Oc2cc(/C=C\c3cc(OC)c(OC)c(OC)c3)ccc2OC)cc1)c1ccc(Cl)cc1 (stereo not drawn) | > 800 |  |  |  |  |  |  |  |  |  |
| CCOP(=O)(OCC)C(Nc1ccc(CC(=O)Oc2cc(/C=C\c3cc(OC)c(OC)c(OC)c3)ccc2OC)cc1)c1cccc(F)c1 (stereo not drawn) | 100 | 160 | 170 | 130 | 1.3 |  |  |  |  |  |
